These results are taken from EP2620142A1, “Hedgehog signaling pathway involved in energy metabolism” (Max-Planck-Gesellschaft zur Förderung der Wissenschaften …, priority 2012, dated 2013).

One experiment deals with Smoothened. As to conditions: cyclopamine 100 nM against standard 200 nM SAG; cited from earlier work.
In experiment [1] the test system is STZ-treated C57BL/6J mice. Kind of experiment: Cyclopamine tolerance test in STZ-treated mice. The class given is in vivo. As to the method:
(§1) C57BL/6J mice were maintained on a standard rodent chow diet and a 12 hour light: 12 hour dark cycle. Eight week old, over-night fasted C57BL/6J male mice were injected intraperitoneally (i.p.) with vehicle (45% hydroxypropyl-β-cyclodextrin; HBS) or cyclopamine (10 mg/kg). Fifteen minutes after injection, an oral glucose tolerance test (OGTT) was performed by administering 2 g/kg glucose by oral gavage. Tail-vein blood was collected to measure glucose and insulin levels. Insulin was measured using the ultrasensitive insulin ELISA Kit from Mercodia, according to the manufacturer's recommendations. For cyclopamine tolerance tests eight week old C57BL/6J mice were i.p. injected with streptozotocin (STZ, 200 mg/kg body weight) to destroy pancreatic beta-cells. 72 hours later STZ-treated mice were separated into two groups and injected i.p. with either vehicle or 10 mg/kg cyclopamine. All animal experiments were carried out according to an ethical animal license protocol in accordance to the animal protection law and approved by the Regierungspräsidium Freiburg (Tierversuchsvorhaben Registrier-Nr.: G-10/94).

Experiment [2] deals with C57BL/6J mice. Kind of experiment: Oral glucose tolerance test (OGTT). Format: in vivo. As to the method: as §1
The test system of experiment [3] is C57BL/6J mice. Kind of experiment: Glycemic-insulinemic clamp with somatostatin infusion. Format: in vivo. As to the method:
Indwelling catheters were placed into the left femoral vein and externalised in the interscapular region of 11 week old C57BL/6J mice^17,52. The animals were allowed to recover for 5 days and fasted for 16 hours before the experiment. Somatostatin (SST14 Bachem, Switzerland) was infused at a rate of 1 µg/kg/min and hyperglycemia (12.5 mM) was maintained by variable infusion of 10% glucose. Steady state was maintained for 90 min before cyclopamine injection (2/3 bolus 1/3 infusion; low dose = 1 mg/kg, high-dose = 10 mg/kg), or HBS (Control). Whole blood was sampled from the tail every 10 min during the last hour using a glucometer (AccuCheck Aviva; Roche Diagnostics, Meylan, France).

The next experiment deals with AMPK. Put plainly: AMPKAR FRET assay of AMPK activity. Particulars: cyclopamine, HEK293 with AMPK-AR reporter. Format: cell-based, Human.
Experiment [4] deals with 3T3-L1 adipocytes. The class given is cell-based, Murine. As to the method: Murine 3T3-L1 preadipocytes (ATCC) were maintained in DMEM containing 10% heat inactivated calf serum (CS) at 37°C and 5% CO2. Two days post-confluence, adipocyte differentiation was induced by treating cells with 0.25 mM 3-Isobutyl-1-methylxanthine (IBMX), 1 µM dexamethasone, 1.74 µM insulin and 5 µM Troglitazone in DMEM containing 10% fetal bovine serum (FBS). After 48 hours, the medium was replaced with DMEM supplemented with 10% FBS, insulin and Troglitazone alone. After an additional 48 hours, cells were switched to DMEM with 10% FBS for the rest of the differentiation process and the medium was changed every other day. Seven days post-induction, differentiated 3T3-L1 1 adipocytes were starved overnight in DMEM containing 1 % Bovine Serum Albumin (BSA) before starting different treatments as indicated in the text.
Differentiated 3T3-L1 adipocytes were starved overnight in DMEM containing 1 % BSA and treated as indicated. NAD^+, NADP^+, NADH, and NADPH were determined using the Enzychrom NAD^+/NADH and the Enzychrom NADP^+/NADPH assay kit, respectively (BioAssay Systems) according to manufacturer's instructions. To measure glucose consumption and lactate production, the Glucose RTU and Lactate RTU kits (Biomerieux) were used according to manufacturer's instruction and normalized to cell number. AMP, ADP and ATP were determined as previously described^51. In brief, cells were washed once with ice cold PBS and proteins were precipitated with 1 % trichloroacetic acid (TCA). Repeated ether washes were used to remove TCA from the aqueous extract phase. Extracts were dried and stored at -80°C until further processing. To determine nucleotide phosphates by reversed-phase HPLC cell extracts were lyophilized for 3 days at -20 °C. Dried samples were dissolved in mobile phase A (60 mM K2HP04 and 40 mM KH2P04, adjusted to pH 7 with 0.1 M KOH). 20 µL were injected into an Agilent 1200 HPLC system (Agilent) and nucleotides were separated by gradient elution from an Agilent Eclipse XDB-C18 4.6 x 150 mm column at a flow rate of 1 mL/min. The gradient was 99% phase A from 0-5 minutes, 99% phase A to 40% A from 5-20 minutes and 99% phase A from 20-32.5 minutes. 100% acetonitrile served as mobile phase B. Eluting nucleotides were monitored on a UV detector at 254 nm. ATP, ADP and AMP standards were used to generate calibration curves for peak quantifications.

Experiment [5] deals with 3T3-L1 adipocytes. Put plainly: Calcium flux measurement (FluoForte). The class given is cell-based, Murine. As to the method: 3T3-L1 cells were cultured and differentiated in black wall/clear bottom 96-well plates (Corning). At day seven post-induction, cells were starved overnight in DMEM containing 1 % BSA and loaded with the calcium dye FluoForte AM (Enzo Lifescience) according to the instructions provided by the manufacturer. Intracellular calcium levels were measured using a Synergy 4 microplate reader (BioTeK). […] Baselines for each well were acquired before injection and subtracted afterwards. Ionomycin and EGTA were injected in concentrations of 1 µM.
Background: Calcium assays in cells follow changes in intracellular calcium, usually with a dye or a luminescent sensor.

Experimental for AMPK: HEK293 cells (ATCC) were grown in DMEM containing 10% FBS. 2 x 10^6 cells were seeded in 10 cm dishes and transfected using the GeneJuice Reagent (Merck) according to manufacturer's instructions. 48 hours after transfection, cells were resuspended in PBS and used for FRET assays.
HEK293 cells transfected with the AMPK-AR construct^40 were resuspended in PBS at a concentration of 10^5 cells/ml. A Synergy 4 microplate reader (BioTeK) was used for measuring FRET signals. In brief, compounds were pipetted into a 96-well plate at the concentrations indicated in the text. Cell suspensions were pre-loaded in the reader to be injected at 10^4 cells/well. The FRET signal was detected using 420/50 nm and 528/20 nm as excitation and emission settings. Baseline values for each well were acquired before injection and subtracted afterwards.

Take `CC1=C2C[C@H]3[C@@H](CC=C4C[C@@H](O)CC[C@@]43C)[C@@H]2CC[C@]12O[C@@H]1C[C@H](C)CN[C@H]1[C@H]2C` [cyclopamine, 11-deoxojervine]: the “displacing SAG and blocking canonical signalling” value in the experiment with Smoothened was “incapable of displacing standard 200 nM SAG and blocking canonical signalling”. Besides, the glucose clearance entry in experiment [1] (10 mg/kg i.p., insulin-deficient mice) was “significant and robust glucose clearance”. Besides, in experiment [1] (after cyclopamine injection, 10 mg/kg), the “time to glucose clearance” value is around 30 min. The glucose tolerance entry with C57BL/6J mice [2] (10 mg/kg i.p. 15 minutes prior to testing, 2 g/kg oral glucose) is “moderate but significant improvement in glucose tolerance”. Besides, the “basal and glucose-stimulated insulin secretion” value with C57BL/6J mice [2] (10 mg/kg i.p. pre-treatment) was “Neither basal nor glucose-stimulated insulin secretion appeared affected”. The “tissue-specific glucose uptake (glucose tracing)” value in the experiment on C57BL/6J mice [3] (LD 1 mg/kg, HD 10 mg/kg, EDL, Soleus, VL) is “increased glucose-uptake into muscle”. In the experiment on C57BL/6J mice [3] (after cyclopamine infusion), the “time to increase in glucose infusion rate” value was 10 to 20 min. The glucose infusion rate entry in the experiment on C57BL/6J mice [3] (low dose 1 mg/kg, high dose 10 mg/kg, somatostatin infusion) is “robust dose-dependent increases in glucose infusion rate”. Moreover, the “Ampk sensitive FRET signal” value in the experiment on AMPK was “significant Ampk sensitive FRET signal”. Further, in the experiment on 3T3-L1 adipocytes [4] (cyclopamine 100 nM), the “NAD+/NADH ratio” value is on record as “augmentation of the NAD^+/NADH ratio”, the generation of lactate entry is “generation of lactate” and the glucose uptake entry was “marked glucose uptake”. Further, the “Ca++ response” value in the experiment with 3T3-L1 adipocytes [5] (cyclopamine) was “rapid and robust Ca^++ response”.
For `O=C(O)CN(CCOCCOCCN(CC(=O)O)CC(=O)O)CC(=O)O` [EGTA], the “effect on cyclopamine-induced Ca++ response” value in the experiment with 3T3-L1 adipocytes [5] (EGTA 1 µM) is reported as “sensitive to extracellular EGTA”. Further, in the experiment with 3T3-L1 adipocytes [5] (EGTA 1 µM, extracellular calcium chelator), the “effect on SAG- and Shh-induced Ca++ responses” value is listed as “completely abrogated the SAG-and Shh-induced responses”.
`c1cc(-c2cnn3cc(-c4ccc(OCCN5CCCCC5)cc4)cnc23)ccn1` [compound C]: the “effect on SAG-induced metabolic rewiring (glucose uptake, lactate production, redox balance)” value in the experiment with 3T3-L1 adipocytes [4] (SAG 200 nM, compound C 10 µM, nifedipine 20 µM, Ptx 100 ng/ml) is listed as “abrogated all detectable metabolic rewiring effects following SAG stimulation”. Moreover, the “effect on cyclopamine-dependent glucose uptake, lactate production and redox rebalancing” value in the experiment on 3T3-L1 adipocytes [4] (cyclopamine 100 nM, compound C 10 µM, nifedipine 20 µM, Ptx 100 ng/ml) is reported as “efficiently counteracted”.
